Assay results: patent publication US20250270159A1, “1-(CYCLOBUTANEMETHYLIDENE)-2, 4, 5-TRIMETHOXYBENZENE COMPOUND AND PREPARATION METHOD AND USE THEREOF” (CHENGDU XINRUI TAIKANG TECHNOLOGY CO., LTD., priority 2023, published 2025)

What was measured:
[1] = system: Parkinson's disease (PD) mice, 6-OHDA method; assay: 6-OHDA Parkinson's disease mice, hanging experiment; assay type: in vivo, C57 mice; details: Group D, CTMB 20 mg/kg ip, cut-off 60 s
Method: (§1) The mice were randomly divided into a sham operation group (group S, given a blank emulsion with a volume equal to that of the administered group), a model group (group M, given a blank emulsion with a volume equal to that of the administered group), a CTMB group (20 mg/kg, group D), and a levodopa group (levodopa: benserazide hydrochloride=4:1, 12 mg/kg, group L), each group included 10-12 mice, and all of them were administered intraperitoneally.
Preoperatively, mice were fasted for 12 h, and mice were anesthetized with 4% isoflurane induction and maintained with 1.5% isoflurane. The mice were subsequently immobilized on a brain stereotaxic apparatus. The bregma and lambda points were exposed by gently wiping the cranial surface with a cotton swab after cutting the scalp. The stereotaxic apparatus was adjusted to align the heights of the bregma and lambda points, thereby leveling the skull. The bregma point was designated as the origin, the coordinates where the injection site was located were located, and the drill was used to drill a small hole in the skull above the injection site.
6-OHDA (12.5 μg/μL) was injected into the striatum region (AP+0.5 mm; ML+2.00 mm; DV-3.00 mm and-2.00 mm) of the mice, and 1 μL 6-OHDA was injected into each of the two points at a rate of 0.5 μL/min. The needle was left in place for 3 min after the injection was completed, and then the injection needle was lifted, and the scalp of the mice was sutured and disinfected. The sham operation group was injected with an equal volume of saline containing 0.02% ascorbic acid, and other operations were performed as above. After the procedure, the mice were placed in the cage at an appropriate temperature. After awakening from anesthesia, the mice were kept normally.
The hanging experiment: normal mice have climbing activity, which requires proper grip strength and motor coordination, so the hanging experiment may be used to examine motor dysfunction in mice. A metal rod with a diameter of 1.5 mm was placed horizontally on top of the box, and a distance from the metal rod to the bottom of the box was 30 cm. […] Measurement was performed twice, with an interval of 1 min or more between each test, and the results were averaged over the two times.
The motor function of the mice was comprehensively assessed using the rod-climbing experiment and the hanging experiment at 1, 2, 3, and 4 weeks after drug administration.

[2] = system: reduced glutathione (GSH); assay: GSH content in striatum of PD mice; assay type: in vivo, C57 mice; details: Group D, CTMB 20 mg/kg ip, after 4 weeks, injured side
Method: as §1
Malondialdehyde (MDA) is a commonly used indicator of membrane lipid peroxidation, reduced glutathione (GSH) is one of the most commonly used non-enzymatic indicators of antioxidant substances, and superoxide dismutase (SOD) is a common indicator of antioxidant enzymes. After completing the evaluation of motor function after 4 weeks of drug administration, the mice were deeply anesthetized and perfused with 20 mL of saline via the heart. The brain was rapidly severed to isolate the striatal region on the injured side (right side), weighed, and placed into a 1.5 mL EP tube, and homogenized at low temperature by adding phosphate-buffered saline (PBS) at the ratio of a weight of animal tissues (g) to a volume of homogenization medium (mL) of 1:9. […]

## COc1cc(OC)c(OC)cc1C=C1CCC1 [CTMB, 1-(cyclobutylidenemethyl)-2,4,5-trimethoxybenzene]
[1]; baseline 2 weeks after 6-OHDA
  Hanging time, Before administration: 45.5 ± 14.6 s
[1]
  Hanging time, 1 week of administration: 51.8 ± 14.1 s
  Hanging time, 2 weeks of administration: 56.8 ± 5.2 s
  Hanging time, 3 weeks of administration: 58.8 ± 2.8 s
  Hanging time, 4 weeks of administration: 57.6 ± 4.6 s
[2]
  GSH: 46.38 ± 6.94 μmol/g protein
